Assay results reported in article PMC10023787, “Trio-pharmacophore DNA-encoded chemical library for simultaneous selection of fragments and linkers” (Nature Communications, 2023).

Molecular target: T1, bovine trypsin (Bos taurus, UniProt P00760)
T1 construct: purchased Sigma-Aldrich T8003
T1 sequence (P00760 24-246): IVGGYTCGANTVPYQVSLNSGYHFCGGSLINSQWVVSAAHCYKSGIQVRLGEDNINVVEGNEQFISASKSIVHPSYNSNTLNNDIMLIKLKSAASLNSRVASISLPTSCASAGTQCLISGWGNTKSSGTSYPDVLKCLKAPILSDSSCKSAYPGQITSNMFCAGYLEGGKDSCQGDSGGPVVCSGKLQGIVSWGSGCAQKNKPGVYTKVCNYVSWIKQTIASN
Assay: Trypsin inhibition assay (proteolytic activity on BApNA)
Format: biochemical
Details: for improvement (of inhibitory effect): compared with 4-aminomethyl benzamidine; for IC50: mean ± SE, three independent measurements, n.d: not detected
Method: The inhibition by the benzamidine derivatives against trypsin was measured using an assay probing the enzyme proteolytic activity on the substrate Nα-Benzoyl-DL-arginine-4-nitroanilide hydrochloride (BApNA). […] 5 µl of BApNA solution (10 mM, dissolved in DMSO) were added immediately prior to the measurement. The final total volume was 100 µl per well. The measurements were performed in a Low Binding 384-well plate. The absorption was measured at 410 nm in intervals of 10 sec for 15 min at 37 °C using a Beckman Coulter’s Paradigm Detection Platform (Brea, USA). The measurements were performed in triplicate. The activity of trypsin was calculated by the hydrolysis rate of BApNA after subtraction of the background-hydrolysis rate. The curves were plotted as a function of the concentration of the inhibitor against the relative enzyme activity. Vmax was derived from the detected absorption signal for each concentration and logistic fitting was performed to obtain IC50 values using Origin 2019b (OriginLab).

[1] = Concentration 0.1024 nM, fraction of uninhibited activity, read-out: mean (Figure 3c, dose-response, relative trypsin activity)
[2] = Concentration 0.512 nM, fraction of uninhibited activity, read-out: mean (Figure 3c, dose-response, relative trypsin activity)
[3] = Concentration 2.56 nM, fraction of uninhibited activity, read-out: mean (Figure 3c, dose-response, relative trypsin activity)
[4] = Concentration 64 nM, fraction of uninhibited activity, read-out: mean (Figure 3c, dose-response, relative trypsin activity)
[5] = Concentration 320 nM, fraction of uninhibited activity, read-out: mean (Figure 3c, dose-response, relative trypsin activity)
[6] = Concentration 1600 nM, fraction of uninhibited activity, read-out: mean (Figure 3c, dose-response, relative trypsin activity)
[7] = Concentration 8000 nM, fraction of uninhibited activity, read-out: mean (Figure 3c, dose-response, relative trypsin activity)
[8] = Concentration 40000 nM, fraction of uninhibited activity, read-out: mean (Figure 3c, dose-response, relative trypsin activity)
[9] = Concentration 200000 nM, fraction of uninhibited activity, read-out: mean (Figure 3c, dose-response, relative trypsin activity)
[10] = Concentration 0.1024 nM, fraction of uninhibited activity
[11] = Concentration 0.512 nM, fraction of uninhibited activity
[12] = Concentration 2.56 nM, fraction of uninhibited activity
[13] = Concentration 64 nM, fraction of uninhibited activity
[14] = Concentration 320 nM, fraction of uninhibited activity
[15] = Concentration 1600 nM, fraction of uninhibited activity
[16] = Concentration 8000 nM, fraction of uninhibited activity
[17] = Concentration 40000 nM, fraction of uninhibited activity
[18] = Concentration 200000 nM, fraction of uninhibited activity
[19] = Concentration […], fraction of uninhibited activity

remaining activity at 0.0001024 µM [1] | remaining activity at 0.000512 µM [2] | remaining activity at 0.00256 µM [3] | remaining activity at 0.064 µM [4] | remaining activity at 0.32 µM [5] | remaining activity at 1.6 µM [6] | remaining activity at 8 µM [7] | remaining activity at 40 µM [8] | remaining activity at 200 µM [9] | improvement (of inhibitory effect) | IC50 | mean (Figure 3c, dose-response, relative trypsin activity) [10] | mean (Figure 3c, dose-response, relative trypsin activity) [11] | mean (Figure 3c, dose-response, relative trypsin activity) [12] | mean (Figure 3c, dose-response, relative trypsin activity) [13] | mean (Figure 3c, dose-response, relative trypsin activity) [14] | mean (Figure 3c, dose-response, relative trypsin activity) [15] | mean (Figure 3c, dose-response, relative trypsin activity) [16] | mean (Figure 3c, dose-response, relative trypsin activity) [17] | mean (Figure 3c, dose-response, relative trypsin activity) [18] | Structure (SMILES) | other results
101% | 110% | 107% | 110% | 102% | 97.5% | 74% | 23.7% | 5.61% | approximately 9 fold | 16.6 ± 3.1 µM | – | – | – | – | – | – | – | – | – | N=C(N)c1ccc(CNC(=S)Nc2cccc(I)c2)cc1 [Compound T-0] | remaining activity at 1000 µM (Concentration 1000000 nM, fraction of uninhibited activity, read-out: mean (Figure 3c, dose-response, relative trypsin activity)): 1.19%
– | – | – | – | – | – | – | – | – | – | – | 0.9598 | 1.038 | 1.032 | 1.057 | 1.07 | 0.9365 | 0.7184 | 0.2303 | 0.05821 | N=C(N)c1ccc(CNC(=O)CCCC(=O)NCCNC(=S)Nc2cccc(I)c2)cc1 [Compound T-1] | mean (Figure 3c, dose-response, relative trypsin activity) (Concentration 830000 nM, fraction of uninhibited activity): 0.00834; mean (Figure 3c, dose-response, relative trypsin activity) [19]: 1.021
105% | 104% | 106% | 109% | 97.3% | 81.2% | 37.4% | 7.09% | 1.08% | 70 fold | 5.2 ± 2.2 µM | – | – | – | – | – | – | – | – | – | N=C(N)c1ccc(CNCc2ccc(C(=O)NCCNC(=S)Nc3cccc(I)c3)cc2)cc1 [Compound T-2] | remaining activity at 365 µM (Concentration 365000 nM, fraction of uninhibited activity, read-out: mean (Figure 3c, dose-response, relative trypsin activity)): 0.681%
93.7% | 99.6% | 98.7% | 108% | 90.1% | 56.5% | 18.3% | 3.2% | 0.69% | 30 fold | 2.1 ± 0.4 µM | – | – | – | – | – | – | – | – | – | N=C(N)c1ccc(CNC(=O)C2CCC(C(=O)NCCNC(=S)Nc3cccc(I)c3)CC2)cc1 (stereo not drawn) [Compound T-3] | remaining activity at 650 µM (Concentration 650000 nM, fraction of uninhibited activity, read-out: mean (Figure 3c, dose-response, relative trypsin activity)): 0%
– | – | – | – | – | – | – | – | – | – | – | 0.916 | 1.0035 | 1.023 | 0.976 | 0.9546 | 0.8556 | 0.5625 | 0.1537 | 0.03111 | N=C(N)c1ccc(CNC(=O)C2CCC(C(=O)NCCNC(=S)Nc3cccc(I)c3)CC2)cc1 (stereo not drawn) [Compound T-4] | mean (Figure 3c, dose-response, relative trypsin activity) (Concentration 440000 nM, fraction of uninhibited activity): 0.01768; mean (Figure 3c, dose-response, relative trypsin activity) [19]: 0.9246
– | – | – | – | – | – | – | – | – | – | – | 1.021 | 0.9691 | 0.9977 | 0.9529 | 0.962 | 0.9553 | 0.8147 | 0.4599 | 0.1722 | N=C(N)c1ccc(CNC2CC(=O)N(CC3CCC(C(=O)NCCNC(=S)Nc4cccc(I)c4)CC3)C2=O)cc1 (stereo not drawn) [Compound T-5] | mean (Figure 3c, dose-response, relative trypsin activity) (Concentration 650000 nM, fraction of uninhibited activity): 0.07286; mean (Figure 3c, dose-response, relative trypsin activity) [19]: 0.9721
